Results reported in patent US9770026B2, “Substituted pyrimidine compound and uses thereof” (Shenyang Sinochem Agrochemicals R&D Co., Ltd., priority 2012, dated 2017).

What was measured:
rice blast = experiment: microbe, parasite or virus in culture; format: cell-based; settings: Pyricularia oryzae; for inhibition at 8.3 ppm: read-out: inhibition rate against rice blast, 8.3 ppm, in vitro; for inhibition at 25 ppm: read-out: inhibition rate against rice blast, 25 ppm, in vitro
armyworm = experiment: bioactivity test against armyworm, airbrush spray; format: in vivo
corn rust = experiment: protectant activity in vivo against corn rust; settings: for pest or weed control at 6.25 µg/mL: read-out: control effect against corn rust (%), 6.25 mg/L; for pest or weed control at 25 µg/mL: read-out: control effect against corn rust (%), 25 mg/L; for pest or weed control at 100 µg/mL: read-out: control effect against corn rust (%), 100 mg/L; for pest or weed control at 400 µg/mL: read-out: control effect against corn rust (%), 400 mg/L; for pest or weed control at 25 ppm: read-out: protectant activity against corn rust in vivo, 25 ppm; for pest or weed control at 400 ppm: read-out: protectant activity against corn rust in vivo, 400 ppm
Diamond back moth = experiment: insecticidal activity against diamond back moth, airbrush spray; format: in vivo; settings: 600 ppm, mortality after 72 hrs
Method in brief: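 Airbrush leaf-disc spray test: both faces of 2 cm cabbage discs received 0.5 ml of test solution at 0.7 kg/cm^2. Solutions were made in acetone:methanol (1:1) and brought to concentration with 0.1% Tween 80 in water. Ten second-instar larvae per disc, triplicates, were held at 25° C and 60˜70% R.H., with mortality recorded at 72 hrs.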

[1] = system: Green peach aphids (Myzus Persicae Sulzer); experiment: bioactivity test against green peach aphid, airbrush foliar spray; format: in vivo; settings: for Insecticidal activity against peach aphid (%): contrastive test
Method in brief: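 Death rate was scored at 48 hrs, held at 25±1 C and 60±5% RH, following airbrush foliar spray (0.5 mL, 10 psi) onto cabbage leaf discs bearing about 15-30 aphids. Test solutions: compound dissolved in 1:1 acetone:methanol, brought to concentration with 0.1% tween 80 water.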

carmine spider mite = experiment: bioactivity test against carmine spider mite, airbrush spray; format: in vivo
Method in brief: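 Broadbean seedlings infested with adult mites were sprayed with compound (acetone/methanol stock diluted in 0.1% Tween 80 water) by airbrush at 0.7 kg/cm^2, 0.5 ml. Three replicates were run. Mortality was scored after 72 hrs.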

wheat powdery mildew = experiment: protectant activity in vivo against wheat powdery mildew; settings: for pest or weed control at 400 ppm: read-out: protectant activity against wheat powdery mildew in vivo, 400 ppm
cucumber downy mildew = experiment: protectant activity in vivo against cucumber downy mildew; settings: for pest or weed control at 50 ppm: read-out: protectant activity against cucumber downy mildew in vivo, 50 ppm; for pest or weed control at 400 ppm: read-out: protectant activity against cucumber downy mildew in vivo, 400 ppm
[2] = Zea mays, 168 h, protectant activity
[3] = 10 ppm, death rate after 48 hrs
[4] = Myzus persicae, foliar, 48 h, 100 ppm, death rate after 48 hrs
[5] = Myzus persicae, foliar, 48 h, 600 ppm, death rate after 48 hrs
[6] = 100 ppm, mortality after 72 hrs
[7] = 600 ppm, mortality after 72 hrs
[8] = Tetranychus cinnabarinus, 72 h, 600 ppm, mortality after 72 hrs

Cc1c(Cl)c(NCCc2ccc(Oc3ccc(C(F)(F)F)cn3)cc2)nc[n+]1CC(=O)c1ccc(Cl)cc1 [CK49, reference compound]
inhibition at 8.3 ppm (rice blast): 0%
inhibition at 25 ppm (rice blast): < 50%
pest or weed control at 600 µg/mL (armyworm; 72 h, 600 mg/L, read-out: Insecticidal activity against armyworm (%)): 17%
pest or weed control at 6.25 µg/mL (corn rust; [2]): 0%
pest or weed control at 25 µg/mL (corn rust; [2]): 0%
pest or weed control at 100 µg/mL (corn rust; [2]): 30%
pest or weed control at 400 µg/mL (corn rust; [2]): 85%

Cc1ncnc(NCCc2ccc(Oc3ccc(C(F)(F)F)cn3)cc2)c1Cl [Compound I-22]
inhibition at 8.3 ppm (rice blast): 80 to 99%
control (test results against diamond back moth) (Diamond back moth): 100%
Insecticidal activity against peach aphid (%) ([1]; 1.25 mg/L): 100%
Insecticidal activity against peach aphid (%) ([1]; 2.5 mg/L): 100%
Insecticidal activity against peach aphid (%) ([1]; 5 mg/L): 100%
Insecticidal activity against peach aphid (%) ([1]; 10 mg/L): 100%
Insecticidal activity against peach aphid (%) ([1]; 100 mg/L): 100%
Insecticidal activity against peach aphid (%) ([1]; 600 mg/L): 100%
control (test results against green peach aphid) [1, 3]: 100%
pest or weed control at 100 ppm [1, 4]: 100%
pest or weed control at 600 ppm [1, 5]: 100%
Insecticidal activity against carmine spider mite (% ) (carmine spider mite; 5 mg/L): 59%
Insecticidal activity against carmine spider mite (% ) (carmine spider mite; 10 mg/L, contrastive test): 74%
Insecticidal activity against carmine spider mite (% ) (carmine spider mite; 100 mg/L, contrastive test): 100%
Insecticidal activity against carmine spider mite (% ) (carmine spider mite; 600 mg/L, contrastive test): 100%
control against carmine spider mite (carmine spider mite; [6]): 100%
control against carmine spider mite (carmine spider mite; [7]): 100%
protectant activity against corn rust in vivo (corn rust; 6.25 ppm): 100%
protectant activity against corn rust in vivo (corn rust; 100 ppm): 100%
pest or weed control at 0.4 µg/mL (corn rust; Zea mays, 168 h, read-out: control effect against corn rust (%), 0.4 mg/L, protectant activity): 20%
pest or weed control at 1.6 µg/mL (corn rust; Zea mays, 168 h, read-out: control effect against corn rust (%), 1.6 mg/L, protectant activity): 50%
pest or weed control at 6.25 µg/mL (corn rust; [2]): 100%
pest or weed control at 25 µg/mL (corn rust; [2]): 100%
pest or weed control at 100 µg/mL (corn rust; [2]): 100%
pest or weed control at 400 µg/mL (corn rust; [2]): 100%
pest or weed control at 25 ppm (corn rust; Zea mays, 168 h): 100%
pest or weed control at 400 ppm (corn rust; Zea mays, 168 h): 100%
protectant activity against wheat powdery mildew in vivo (wheat powdery mildew; 6.25 ppm): 100%
protectant activity against wheat powdery mildew in vivo (wheat powdery mildew; 100 ppm): 100%
pest or weed control at 1.6 µg/mL (wheat powdery mildew; Triticum aestivum, 168 h, read-out: control effect against wheat powdery mildew (%), 1.6 mg/L, protectant activity): 15%
pest or weed control at 6.25 µg/mL (wheat powdery mildew; Triticum aestivum, 168 h, read-out: control effect against wheat powdery mildew (%), 6.25 mg/L, protectant activity): 100%
pest or weed control at 25 µg/mL (wheat powdery mildew; Triticum aestivum, 168 h, read-out: control effect against wheat powdery mildew (%), 25 mg/L, protectant activity): 100%
pest or weed control at 100 µg/mL (wheat powdery mildew; Triticum aestivum, 168 h, read-out: control effect against wheat powdery mildew (%), 100 mg/L, protectant activity): 100%
pest or weed control at 400 µg/mL (wheat powdery mildew; Triticum aestivum, 168 h, read-out: control effect against wheat powdery mildew (%), 400 mg/L, protectant activity): 100%
pest or weed control at 25 ppm (wheat powdery mildew; Triticum aestivum, 168 h, read-out: protectant activity against wheat powdery mildew in vivo, 25 ppm): 100%
pest or weed control at 400 ppm (wheat powdery mildew; Triticum aestivum, 168 h): 100%
protectant activity against cucumber downy mildew in vivo (cucumber downy mildew; 100 ppm): 100%
pest or weed control at 3.125 µg/mL (cucumber downy mildew; Cucumis sativus, 168 h, read-out: control effect against cucumber downy mildew (%), 3.125 mg/L, protectant activity): 85%
pest or weed control at 6.25 µg/mL (cucumber downy mildew; Cucumis sativus, 168 h, read-out: control effect against cucumber downy mildew (%), 6.25 mg/L, protectant activity): 100%
pest or weed control at 12.5 µg/mL (cucumber downy mildew; Cucumis sativus, 168 h, read-out: control effect against cucumber downy mildew (%), 12.5 mg/L, protectant activity): 100%
pest or weed control at 25 µg/mL (cucumber downy mildew; Cucumis sativus, 168 h, read-out: control effect against cucumber downy mildew (%), 25 mg/L, protectant activity): 100%
pest or weed control at 50 µg/mL (cucumber downy mildew; Cucumis sativus, 168 h, read-out: control effect against cucumber downy mildew (%), 50 mg/L, protectant activity): 100%
pest or weed control at 100 µg/mL (cucumber downy mildew; Cucumis sativus, 168 h, read-out: control effect against cucumber downy mildew (%), 100 mg/L, protectant activity): 100%
pest or weed control at 400 µg/mL (cucumber downy mildew; Cucumis sativus, 168 h, read-out: control effect against cucumber downy mildew (%), 400 mg/L, protectant activity): 100%
pest or weed control at 6.25 ppm (cucumber downy mildew; Cucumis sativus, 168 h, read-out: protectant activity against cucumber downy mildew in vivo, 6.25 ppm): 100%
pest or weed control at 12.5 ppm (cucumber downy mildew; Cucumis sativus, 168 h, read-out: protectant activity against cucumber downy mildew in vivo, 12.5 ppm): 100%
pest or weed control at 25 ppm (cucumber downy mildew; Cucumis sativus, 168 h, read-out: protectant activity against cucumber downy mildew in vivo, 25 ppm): 100%
pest or weed control at 50 ppm (cucumber downy mildew; Cucumis sativus, 168 h): 100%
pest or weed control at 400 ppm (cucumber downy mildew; Cucumis sativus, 168 h): 100%

Cc1ncnc(NCCc2ccc(Oc3ncc(C(F)(F)Cl)cc3Cl)cc2)c1Cl [Compound I-483]
inhibition at 0.1 ppm (rice blast; read-out: inhibition rate against rice blast, 0.1 ppm, in vitro): 100%
inhibition at 0.3 ppm (rice blast; read-out: inhibition rate against rice blast, 0.3 ppm, in vitro): 100%
inhibition at 0.9 ppm (rice blast; read-out: inhibition rate against rice blast, 0.9 ppm, in vitro): 100%
inhibition at 2.8 ppm (rice blast; read-out: inhibition rate against rice blast, 2.8 ppm, in vitro): 100%
inhibition at 8.3 ppm (rice blast): 100%
inhibition at 25 ppm (rice blast): 100%
pest or weed control at 100 ppm [1, 4]: 100%
pest or weed control at 600 ppm [1, 5]: 100%
pest or weed control at 100 ppm (carmine spider mite; Tetranychus cinnabarinus, 72 h, 100 ppm, mortality after 72 hrs): 80 to 99%
pest or weed control at 600 ppm (carmine spider mite; [8]): 100%
pest or weed control at 400 ppm (corn rust; Zea mays, 168 h): 100%
pest or weed control at 100 ppm (wheat powdery mildew; Triticum aestivum, 168 h, read-out: protectant activity against wheat powdery mildew in vivo, 100 ppm): 80 to 99%
pest or weed control at 400 ppm (wheat powdery mildew; Triticum aestivum, 168 h): 80 to 99%
pest or weed control at 400 ppm (cucumber downy mildew; Cucumis sativus, 168 h): 100%

Cc1ncnc(NCCc2ccc(Oc3ccc(C(F)(F)F)cn3)cc2)c1Cl [Compound I-6763]
inhibition at 25 ppm (rice blast): 100%
control (test results against armyworm) (armyworm; 600 ppm, mortality after 72 h): 100%
pest or weed control at 100 ppm (armyworm; 72 h, 100 ppm, mortality after 72 h): 100%
control (test results against green peach aphid) [1, 3]: 100%
control (test results against green peach aphid) ([1]; 100 ppm, death rate after 48 hrs): 100%
control (test results against green peach aphid) ([1]; 600 ppm, death rate after 48 hrs): 100%
pest or weed control at 5 ppm ([1]; Myzus persicae, foliar, 48 h, 5 ppm, death rate after 48 hrs): 100%
control against carmine spider mite (carmine spider mite; [6]): 100%
control against carmine spider mite (carmine spider mite; [7]): 100%
protectant activity against corn rust in vivo (corn rust; 100 ppm): 100%
protectant activity against corn rust in vivo (corn rust; 400 ppm): 100%
protectant activity against wheat powdery mildew in vivo (wheat powdery mildew; 100 ppm): 100%
protectant activity against wheat powdery mildew in vivo (wheat powdery mildew; 400 ppm): 100%

CCOC(=O)c1ccc(Oc2ccc(CCNc3nc(C)nc(CC)c3Cl)cc2)nc1 [Compound I-6796]
inhibition at 25 ppm (rice blast): 80 to 99%
pest or weed control at 10 ppm ([1]; Myzus persicae, foliar, 48 h, 10 ppm, death rate after 48 hrs): 100%
pest or weed control at 100 ppm [1, 4]: 100%
pest or weed control at 600 ppm [1, 5]: 100%
pest or weed control at 600 ppm (carmine spider mite; [8]): 80 to 99%
pest or weed control at 6.25 ppm (corn rust; Zea mays, 168 h, read-out: protectant activity against corn rust in vivo, 6.25 ppm): 80 to 99%
pest or weed control at 25 ppm (corn rust; Zea mays, 168 h): 80 to 99%
pest or weed control at 100 ppm (corn rust; Zea mays, 168 h, read-out: protectant activity against corn rust in vivo, 100 ppm): 100%
pest or weed control at 400 ppm (corn rust; Zea mays, 168 h): 100%
pest or weed control at 400 ppm (wheat powdery mildew; Triticum aestivum, 168 h): 100%
pest or weed control at 50 ppm (cucumber downy mildew; Cucumis sativus, 168 h): 80 to 99%
pest or weed control at 100 ppm (cucumber downy mildew; Cucumis sativus, 168 h, read-out: protectant activity against cucumber downy mildew in vivo, 100 ppm): 80 to 99%
pest or weed control at 400 ppm (cucumber downy mildew; Cucumis sativus, 168 h): 100%
